From patent US6458872B1, “Benzotriazole UV absorbers having enhanced durability” (Ciba Specialty Chemicals Corporation, priority 1997, dated 2002)
Each block holds one compound with its values, some of them ahead of it.

Columns and labels:
Format in all cases: physicochemical
[1] = Durability in solvent cast PVC films, Atlas C165 Weather-Ometer (Example 83); conditions: PVC film; for % Loss / Absorbance (max) Loss units: 1100 hrs
Experimental: (§1) The durability of representative benzotriazoles in thermoplastic substrates is determined by incorporating various test compounds into solvent cast films of poly(vinyl chloride), polycarbonate and polystyrene resins. The free standing films are mounted into cardboard holders, secured in metal frames and exposed in an Atlas C165 Xenon-arc Weather-Ometer under dry conditions according to ASTM G26 for 1100 and 2200 hour exposure. Loss of UV absorber is determined by monitoring the loss of diagnostic UV absorption as described earlier. Performance is measured by a change in color or the physical integrity of the film.
PVC films of GEON® 27 (Geon Co.) are solvent cast as described above with warm tetrahydrofuran (THF) and exposed in an Atlas C165 Weather-Ometer as described in Example 60 for 1100 hours.

[2] = Durability in solvent cast polycarbonate film, Atlas C165 Xenon-arc, ASTM G26 (Example 80); conditions: for % Loss / Absorbance (max) Loss units: 1100 hrs
Experimental: as §1
Polycarbonate flake (LEXAN® 145, General Electric) is dissolved in methylene chloride at room temperature along with between 1 and 3% by weight of test benzotriazole, based on the polycarbonate. Films are cast using a calibrated drawdown bar to prepare 1 mil thick film after drying.

[3] = Yellowness color of solutions in butyl acetate, Macbeth Color-Eye (Example 75); conditions: 30 mg/100 mL in butyl acetate; for DE: corresponding Yellowness Index value; for b: yellowness, Macbeth Color-Eye
Experimental: The following examples show the difference in color between some of the instant compounds as measured by a Macbeth Color-Eye instrument at a concentration of 30 mg/100 mL in butyl acetate. […] In the table, the compounds are listed by increasing b value. The instrument measures yellowness as b and DE is the corresponding Yellowness Index value.

[4] = UV absorption data (Example 74); design: ε @ λ max: unit not given beside the values
[5] = UV absorption data (Example 74); conditions: 20 mg/l concentrations; not the molar extinction values
Experimental: In the following examples the absorbance at 375 nm is reported for 20 mg/l concentrations. This is not the molar extinction values.

[6] = Loss of UV absorber from high solids thermoset acrylic clear coat, Xenon Arc Weather-Ometer (Example 77); conditions: after 1211 hours Xenon arc exposure; clear coat with 1% hindered amine; UV absorber at 5 mmol % by weight
Experimental: To ascertain the effect on thermal durability and loss rate from a high solids thermoset acrylic coating of various 2H-benzotriazole UV absorbers substituted by a variety of electron withdrawing and electron donating groups, the following tests are carried out.
A high solids thermoset acrylic clear coat is prepared by mixing an experimental acrylic polyol resin and hexamethoxymethylmelamine (Resimene® 747, Monsanto) at a solids ratio of 60/40. The dodecylbenzene sulfonic acid catalyst (Nacure® 5225; King Industries) is added at 0.70% by weight. A flow aid Modaflow® (Monsanto) is added at 0.25% by weight to form a model acrylic melamine resin system.
The model clear coat is reduced with xylene to a viscosity of 26-27 second using a Zahn #2 cup and applied via a conventional air spray at 50 psi (3.5 Kg/cm^2) over a 1″×3″ (2.54 cm×7.62 cm) quartz slide. Cure is achieved by baking the slide for 30 minutes at 260° F. (127° C.). The clear coat is stabilized with 1% by weight of a hindered amine light stabilizer, bis-(1-octyloxy-2,2,6,6-tetramethylpiperidin-4-yl)sebacate, (TINUVIN® 123, Ciba-Geigy). The various test benzotriazole UV absorbers are incorporated at the 5 mmol % by weight in the clear coat. The film thickness on the quartz slides range from 1.15 to 1.41 mils (0.029 to 0.036 mm).
The films on the quartz slides are weathered according to the following conditions in Xenon Arc Weather-Ometer with a controlled irradiance at 6500 W, using inner quartz and outer borosilicate S-type filter. The irradiation cycle is as follows: 40 minutes of straight irradiation with no water spray, followed by 20 minutes of light plus front spray, followed by 60 minutes of light irradiation and finally by 60 minutes dart plus rear spray (condensation). The setting is at 0.55 W/M^2 at 340 nm, 1.98 kJ/hour. In the light cycle the black panel temperature is controlled at 70±2° C. The relative humidity in the light cycle is in the range of 50-55% and in the dark cycle 100%. The absorbance of the long wavelength UV band as a function of Xenon arc weathering hours are recorded in the table below.
To follow the loss of UV absorbers from the clear coats, UV spectra are measured initially and after weathering at regular time intervals. The UV spectrophotometer measures absorbance linearly up to 5.5 absorbance units using a reference beam attenuation technique.
This is tested by following the ratio of absorbance of the band at about 300 nm and the band at about 340 nm.
The data in the table below are based on formula A after 1211 hours of exposure of the clear coats containing the test benzotriazole UV absorbers.

[7] = Loss of UV absorber from high solids thermoset acrylic melamine clear coat, Xenon-Arc X180 cycle (Example 78); conditions: for durability (low loss rate absorbance values after exposure): in words, summary of the tables of Example 78
Description: Following the general procedure of Example 77, a number of additional benzotriazole test compounds are incorporated into a high solids thermoset acrylic melamine resin at such concentrations between 1.93 and 3% by weight to give equal molar concentrations of test benzotriazole in equal film thickness, and sufficient to give a starting absorbance of approximately 2.0 absorbance units.
The test discs are exposed in a Xenon-Arc Weather-Ometer at X180 cycle (0.45 Watts/M^2). The initial UV absorbance is measured followed by measurements at roughly 250 hour intervals for the first 2000 hours and every 500 hours thereafter. Each clear coat also contains 1% by weight of a hindered amine light stabilizer, bis-(1-octyloxy-2,2,6,6-tetramethylpiperidin-4-yl) sebacate, as well.

[8] = after 1253 hours of exposure, starting absorbance approximately 2.0, 1% hindered amine

Absorbance (max) 1100 hrs ([1]; 2.5 wt %): 1.103 | % Loss ([1]; 2.5 wt %): 3.1% | Absorbance (max) Loss units ([1]; 2.5 wt %): 0.036 | Absorbance (max) 0 hrs ([1]; 2.5 wt %, AA at 368 nm): 1.149 | Absorbance (max) 1100 hrs ([2]; 2.5 wt %): 1.300 | % Loss ([2]; 2.5 wt %): 2.5% | Absorbance (max) Loss units ([2]; 2.5 wt %): 0.033 | Absorbance (max) 0 hrs ([2]; 2.5 wt %, AA at 364 nm): 1.333
Compound: CCCCCCCCCS(=O)(=O)c1ccc2nn(-c3cc(C(C)(C)CC(C)(C)C)cc(C(C)(C)c4ccccc4)c3O)nc2c1 [AA, 5-nonylsulfonyl-2-(2-hydroxy-3-α-cumyl-5-tert-octylphenyl)-2H-benzotriazole]

Compound: CCCCS(=O)(=O)c1ccc2nn(-c3cc(C(C)(C)CC(C)(C)C)cc(C(C)(C)c4ccccc4)c3O)nc2c1 [CC, 5-butylsulfonyl-2-(2-hydroxy-3-α-cumyl-5-tert-octylphenyl)-2H-benzotriazole]
DE [3]: 3.35 | b [3]: 2.84 | ε @ λ max [4]: 14,100 | λ max nm [4]: 359 nm | Absorbance @ 375 nm [5]: 0.42

Units Absorbance Loss [6]: 1.7982
Compound: CC(C)(C)CC(C)(C)c1ccc(O)c(-n2nc3ccccc3n2)c1 [Compound A, 2-(2-hydroxy-5-tert-octylphenyl)-2H-benzotriazole]

Units Absorbance Loss [6]: 1.6300
Compound: CC(C)(C)CC(C)(C)c1cc(Cc2cc(C(C)(C)CC(C)(C)C)cc(-n3nc4ccccc4n3)c2O)c(O)c(-n2nc3ccccc3n2)c1 [Compound B, 2,2′-Methylene-bis[6-(2H-benzotriazol-2-yl)-4-tert-octylphenol]]

Units Absorbance Loss [6]: 0.3712
Compound: CC(C)(C)c1cc(CCCO)cc(-n2nc3ccccc3n2)c1O [Compound L]

Compound: CC(C)(c1ccccc1)c1cc(-n2nc3ccccc3n2)c(O)c(C(C)(C)c2ccccc2)c1 [Compound P, 2-(2-hydroxy-3,5-di-α-cumylphenyl)-2H-benzotriazole]
Absorbance (max) 1100 hrs ([1]; 1.5 wt %): 1.022 | % Loss ([1]; 1.5 wt %): 10.7% | Absorbance (max) Loss units ([1]; 1.5 wt %): 0.123 | Absorbance (max) 0 hrs ([1]; 1.5 wt %, P at 347 nm): 1.145 | Absorbance (max) 1100 hrs ([1]; 2.5 wt %): 2.081 | % Loss ([1]; 2.5 wt %): 5.6% | Absorbance (max) Loss units ([1]; 2.5 wt %): 0.130 | Absorbance (max) 0 hrs ([1]; 2.5 wt %, AA at 368 nm): 2.211 | Units Absorbance Loss [6]: 0.2576 | Absorbance (max) 1100 hrs ([2]; 1.5 wt %): 0.919 | % Loss ([2]; 1.5 wt %): 13.5% | Absorbance (max) Loss units ([2]; 1.5 wt %): 0.143 | Absorbance (max) 0 hrs ([2]; 1.5 wt %, P at 347 nm): 1.062 | Absorbance (max) 1100 hrs ([2]; 2.5 wt %): 1.844 | % Loss ([2]; 2.5 wt %): 12.3% | Absorbance (max) Loss units ([2]; 2.5 wt %): 0.260 | Absorbance (max) 0 hrs ([2]; 2.5 wt %, AA at 364 nm): 2.104

Compound: CC(C)(C)CC(C)(C)c1cc(-n2nc3ccc(S(=O)(=O)c4ccccc4)cc3n2)c(O)c(C(C)(C)c2ccccc2)c1 [Compound U, 5-phenylsulfonyl-2-(2-hydroxy-3-α-cumyl-5-tert-octylphenyl)-2H-benzotriazole]
DE [3]: 4.42 | b [3]: 3.75 | ε @ λ max [4]: 17,300 | λ max nm [4]: 362 nm | Units Absorbance Loss ([7]; after 1264 hours of exposure): 0.0944 | Units Absorbance Loss ([7]; after 1518 hours of exposure): 0.1114 | durability (low loss rate absorbance values after exposure) [7]: especially durable | Absorbance @ 375 nm [5]: 0.50

Compound: COC(=O)c1ccc2nn(-c3cc(C(C)(C)CC(C)(C)C)cc(C(C)(C)c4ccccc4)c3O)nc2c1 [DD, 5-carbomethoxy-2-(2-hydroxy-3-α-cumyl-5-tert-octylphenyl)-2H-benzotriazole]
DE [3]: 2.25 | b [3]: 1.85 | ε @ λ max [4]: 15,700 | λ max nm [4]: 358 nm | Absorbance @ 375 nm [5]: 0.42

Units Absorbance Loss [6]: 1.4002
Compound: COC(=O)CCc1ccc(O)c(-n2nc3ccccc3n2)c1 [D]

Units Absorbance Loss [6]: 1.1872
Compound: COc1ccc2nn(-c3cc(C)cc(C(C)(C)C)c3O)nc2c1 [E]

DE [3]: 0.72 | b [3]: 0.54
Compound: CC(C)CCCCCOC(=O)CCc1cc(-n2nc3ccc(C(F)(F)F)cc3n2)c(O)c(C(C)(C)C)c1 [FF, isooctyl 3-(5-trifluoromethyl-2H-benzotriazol-2-yl)-5-tert-butyl-4-hydroxyhydro-cinnamate]

Units Absorbance Loss [6]: 0.5259
Compound: COC(=O)CCc1cc(-n2nc3ccccc3n2)c(O)c(C(C)(C)C)c1 [F]

Units Absorbance Loss [6]: 0.4527
Compound: CC(C)(c1ccccc1)c1ccc(O)c(-n2nc3ccccc3n2)c1 [G]

Compound: CC(C)(C)CC(C)(C)c1cc(C(C)(C)c2ccccc2)cc(-n2nc3ccccc3n2)c1O [I]
Units Absorbance Loss [6]: 0.4299

Compound: CC(C)(C)CC(C)(C)c1cc(-n2nc3ccccc3n2)c(O)c(C(C)(C)CC(C)(C)C)c1 [K]
Units Absorbance Loss [6]: 0.3777

Units Absorbance Loss [6]: 0.3433
Compound: COC(=O)CCc1cc(-n2nc3ccccc3n2)c(O)c(C(C)(C)c2ccccc2)c1 [M]

Units Absorbance Loss [6]: 0.3098
Compound: CC(C)(C)c1cc(-n2nc3ccc(C#N)cc3n2)c(O)c(C(C)(C)C)c1 [N]

Units Absorbance Loss [7, 8]: 0.2424 | Units Absorbance Loss ([7]; after 1489 hours of exposure): 0.3724 | Units Absorbance Loss ([7]; after 2521 hours of exposure): 0.4824
Compound: CC(C)(c1ccccc1)c1cc(-c2ccccc2)c(O)c(-n2nc3ccccc3n2)c1 [R]

Compound: CC(C)(C)c1cc(-n2nc3ccc(S(=O)(=O)c4ccccc4)cc3n2)c(O)c(C(C)(C)C)c1 [T]
Units Absorbance Loss [7, 8]: 0.1827 | Units Absorbance Loss ([7]; after 1264 hours of exposure): 0.1965 | Units Absorbance Loss ([7]; after 1489 hours of exposure): 0.2654 | Units Absorbance Loss ([7]; after 1518 hours of exposure): 0.2423 | Units Absorbance Loss ([7]; after 2521 hours of exposure): 0.3570 | durability (low loss rate absorbance values after exposure) [7]: significantly more durable

Compound: CC(C)(C)CC(C)(C)c1cc(-n2nc3ccc(Cl)cc3n2)c(O)c(C(C)(C)c2ccccc2)c1 [V, 5-Chloro-2-(2-hydroxy-3-α-cumyl-5-tert-octylphenyl)-2H-benzotriazole]
Units Absorbance Loss ([7]; after 1264 hours of exposure): 0.1719 | Units Absorbance Loss ([7]; after 1518 hours of exposure): 0.1955 | durability (low loss rate absorbance values after exposure) [7]: especially durable

Units Absorbance Loss ([7]; after 1264 hours of exposure): 0.1655 | Units Absorbance Loss ([7]; after 1518 hours of exposure): 0.1668 | durability (low loss rate absorbance values after exposure) [7]: especially durable
Compound: CC(C)(C)CC(C)(C)c1cc(-n2nc3ccc(F)cc3n2)c(O)c(C(C)(C)c2ccccc2)c1 [W, 5-Fluoro-2-(2-hydroxy-3-α-cumyl-5-tert-octylphenyl)-2H-benzotriazole]

Units Absorbance Loss ([7]; after 1264 hours of exposure): 0.1796 | Units Absorbance Loss ([7]; after 1518 hours of exposure): 0.2220
Compound: CC(C)(C)CC(C)(C)c1cc(-c2ccccc2)c(O)c(-n2nc3ccccc3n2)c1 [X]
